Consider 4 molecules from patent publication US8470755B1, “Liquid cleaning and disinfecting compositions comprising a zinc inorganic salt” (The Procter & Gamble Company, priority 2012, dated 2013).

Holding throughout (assay type): cell-based
Test [1] deals with Escherichia Coli (EC) CIP 53.126. The test is described as follows: ASTM E2149 shake flask method, antibacterial log reduction, E. coli. Conditions: log(T0/T1h), 1 hour. As to the method:
(§1) The antibacterial efficacy was tested following the below Shake Flask protocol:
(§2) • Microbial strains: Staphylococcus aureus (SA) CIP 4.83, Escherichia Coli (EC) CIP 53.126, Pseudomonas Aeruginosa (PA) CIP 82.113 • Culture media: TSA medium-Neutralizing medium (Dey Engley Broth)-Buffered Peptoned water (BPW-F)-Shake flask bottles-Physiological water • Incubator Shake Flask Protocol: ASTM E2149 Shake Flask Method • Inoculum counting: • For each strain, prepare an inoculum at 0.5 Mc Farland (McF). Dilute 1 ml of the inoculum with 9 ml of physiological water. Select 1 ml of the resulting dilution and dilute again with 9 ml of physiological water. Execute 5 dilution steps accordingly so that a 10^−5 dilution is obtained. • Recover 100 microliter of the 10^−5 dilution and inoculate 2 petri dishes. • Add 20 ml of TSA medium. • Incubate at 32+/−0.5° C. during 24 hours • Negative control: • Put 5 ml of SA, EC or PA inoculums into a shake flask. Add 45 ml of pure BPW-F solution. • Dilute twice in neutralizing medium: Recover 1 ml of the pure solution and add 9 ml of the neutralizing medium (=10^−1 and 10^−2 dilution). • Wait 5 minutes and put 100 microliter of the pure solution and the 10^−2 dilution into 2 petri dishes, add 20 ml of TSA medium (T0). • Do the same operation after 1 hour (T1h). • Incubate at 32+/−0.5° C. during 24 hours • Sample testing: • Prepare a solution at a specified concentration (see data tables for actual concentrations as 100% active—final volume 50 ml). For example, for a 50% (V/V), dilute 25 ml of product with 20 ml of BPW-F and 5 ml of the inoculums (SA, EC or PA) at 0.5 McF. • Dilute twice in neutralizing medium: Recover 1 ml of the pure solution and add 9 ml of the neutralizing medium (=10^−1 and 10^−2 dilution). • Wait 5 minutes and put 100 microliter of the pure solution and the 10^−2 dilution into 2 petri dishes, add 20 ml of TSA medium (T0). • Do the same operation after 1 hour (T1h). • Incubate at 32+/−0.5° C. during 24 hours • Calculation of log reduction: • The log reduction is calculated as log(T0/T1h)

Test [2] concerns Staphylococcus aureus (SA) CIP 4.83. The test is described as follows: ASTM E2149 shake flask method, antibacterial log reduction, St. aureus. Conditions: log(T0/T1h), 1 hour. As to the method:
as §1, §2

Test [3] deals with Pseudomonas Aeruginosa (PA) CIP 82.113. The test is described as follows: ASTM E2149 shake flask method, antibacterial log reduction, Ps. aeruginosa. Conditions: Ps Aeroginosa; tested active concentration 10%; log(T0/T1h), 1 hour. The procedure: as §1, §2
Where [4] appears, read: tested active concentration 0.1%.
The mark [5] stands for this setting: St. Aureus, tested active concentration 0.1%.

For the molecule `CCCCCCCCCCCC(=O)NCCC[N+](C)(C)[O-]` [CAP AO, cocoamidopropyl dimethyl amine oxide], the “Log reduction (tested active concentration)” value (“Log reduction” below) in test [1] (tested active concentration 1%) is on record as 0.37 (1%); in test [2] (St Aureus, tested active concentration 1%), 0.88 (1%); in test [3], 1.3 (10%).

Regarding “linear C12-14 alkyl dimethyl amine oxide [Linear AO]”, the “Log reduction” value in test [1] (setting [4]) is 0.41 (0.1%); in test [2] (setting [5]), 0.73 (0.1%); in test [3], 2.10 (10%).

For the molecule `O=C([O-])[O-].[Zn+2]` [Zn2+, zinc carbonate], the “Log reduction” value in test [1] (setting [4]) is recorded as 0.17 (0.1%); in test [2] (setting [5]), 0.18 (0.1%); in test [3], 0.27 (10%).

As to “methyl branched dimethyl amine oxide [Shell type 1 Branched AO ( N terminal)]”, the “Log reduction” value in test [2] (setting [5]) is 4.06 (0.1%); in test [3], 3.98 (10%).
